From ChEMBL document CHEMBL1131741, “Design of scytalone dehydratase inhibitors as rice blast fungicides: (N-phenoxypropyl)-carboxamides” (Bioorg Med Chem Lett, 1999)
In brackets after ≈: the same amount, converted by molar mass.

How the values were obtained:
rice = assay: Concentration that affords 90% control of blast disease on rice plants by multiple rate foliar rice blast assay; format: functional
Scytalone dehydratase [1] = target: T1, Scytalone dehydratase (Magnaporthe oryzae (strain 70-15 / FGSC 8958) (Rice blast fungus)(Pyricularia oryzae), UniProt P56221)
T1 sequence (P56221 whole entry): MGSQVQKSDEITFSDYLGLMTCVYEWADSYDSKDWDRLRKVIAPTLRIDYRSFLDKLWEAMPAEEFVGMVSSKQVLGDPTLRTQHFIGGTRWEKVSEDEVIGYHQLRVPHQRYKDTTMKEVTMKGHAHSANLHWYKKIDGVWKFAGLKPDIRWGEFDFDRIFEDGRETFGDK

Scytalone dehydratase [2] = target: T1, Scytalone dehydratase; remark: listed apart in the source

SMILES: C[C@H](COc1cc(F)ccc1F)NC(=O)[C@H](C#N)C(C)(C)C
- ED90 (rice): 6.2 µg/mL (≈ 20 µM)
- Ki (Scytalone dehydratase [1]): 0.73 nM
- Adjusted Ki (Scytalone dehydratase [2]): 0.73 nM

SMILES: CC[C@]1(C(=O)N[C@H](C)COc2ccccc2F)C(C)C1(Cl)Cl (stereo not given in full)
- ED90 (rice): 50 µg/mL (≈ 144 µM)
- Ki (Scytalone dehydratase [1]): 0.37 nM
- Adjusted Ki (Scytalone dehydratase [2]): 0.19 nM

SMILES: CC[C@]1(C(=O)N[C@H](C)COc2ccccc2)C(C)C1(Cl)Cl (stereo not given in full)
- ED90 (rice): 30 µg/mL (≈ 90.8 µM)
- Ki (Scytalone dehydratase [1]): 0.17 nM
- Adjusted Ki (Scytalone dehydratase [2]): 0.0835 nM

SMILES: C[C@H](COc1ccc(F)cc1)NC(=O)C(C#N)C(C)(C)C (stereo not given in full)
- ED90 (rice): 100 µg/mL (≈ 342 µM)
- Ki (Scytalone dehydratase [1]): 1.7 nM
- Adjusted Ki (Scytalone dehydratase [2]): 0.83 nM

SMILES: C[C@H](COc1ccccc1)NC(=O)[C@@H](C#N)C(C)(C)C (stereo in doubt; 6e) [listing 1 of 2 here]
- Ki (Scytalone dehydratase [1]): 1.3 nM
- Adjusted Ki (Scytalone dehydratase [2]): 0.66 nM

SMILES: CC[C@]1(C(=O)N[C@H](C)COc2cc(F)ccc2F)C(C)C1(Cl)Cl (stereo not given in full)
- ED90 (rice): 6 µg/mL (≈ 16.4 µM)
- Ki (Scytalone dehydratase [1]): 0.085 nM
- Adjusted Ki (Scytalone dehydratase [2]): 0.042 nM

SMILES: C[C@H](COc1ccccc1F)NC(=O)[C@@H](C#N)C(C)(C)C
- ED90 (rice): 25 µg/mL (≈ 85.5 µM)
- Ki (Scytalone dehydratase [1]): 0.08 nM
- Adjusted Ki (Scytalone dehydratase [2]): 0.08 nM

SMILES: CC[C@]1(C(=O)NC(C)CCc2ccccc2)C(C)C1(Cl)Cl (stereo not given in full)
- ED90 (rice): 30 µg/mL (≈ 91.4 µM)
- Ki (Scytalone dehydratase [1]): 0.83 nM
- Adjusted Ki (Scytalone dehydratase [2]): 0.21 nM

SMILES: C[C@H](COc1ccccc1)NC(=O)[C@@H](C#N)C(C)(C)C (stereo in doubt; 6e) [listing 2 of 2 here]
- ED90 (rice): 100 µg/mL (≈ 364 µM)

SMILES: CC[C@]1(C(=O)NC(C)COc2ccccc2)C(C)C1(Cl)Cl (stereo not given in full)
- ED90 (rice): 50 µg/mL (≈ 151 µM)
- Ki (Scytalone dehydratase [1]): 0.38 nM
- Adjusted Ki (Scytalone dehydratase [2]): 0.094 nM

SMILES: CC[C@]1(C(=O)N[C@H](C)COc2cccc(F)c2)C(C)C1(Cl)Cl (stereo not given in full)
- ED90 (rice): 30 µg/mL (≈ 86.1 µM)
- Ki (Scytalone dehydratase [1]): 0.11 nM
- Adjusted Ki (Scytalone dehydratase [2]): 0.057 nM

SMILES: CC(COc1ccccc1)NC(=O)C(C#N)C(C)(C)C (stereo not given)
- ED90 (rice): 200 µg/mL (≈ 729 µM)
- Ki (Scytalone dehydratase [1]): 2.8 nM
- Adjusted Ki (Scytalone dehydratase [2]): 0.7 nM

SMILES: C[C@H](COc1cc(F)ccc1F)NC(=O)[C@@H](C#N)C(C)(C)C
- ED90 (rice): 0.8 µg/mL (≈ 2.58 µM)
- Ki (Scytalone dehydratase [1]): 0.02 nM
- Adjusted Ki (Scytalone dehydratase [2]): 0.02 nM

SMILES: CC(COc1ccccc1F)NC(=O)C(C#N)C(C)(C)C (stereo not given)
- ED90 (rice): 50 µg/mL (≈ 171 µM)
- Ki (Scytalone dehydratase [1]): 0.24 nM
- Adjusted Ki (Scytalone dehydratase [2]): 0.059 nM

SMILES: CC[C@]1(C(=O)N[C@H](C)COc2ccc(F)cc2)C(C)C1(Cl)Cl (stereo not given in full)
- ED90 (rice): 30 µg/mL (≈ 86.1 µM)
- Ki (Scytalone dehydratase [1]): 0.22 nM
- Adjusted Ki (Scytalone dehydratase [2]): 0.11 nM

SMILES: CC[C@]1(C(=O)N[C@H](C)COc2cccc(F)c2F)C(C)C1(Cl)Cl (stereo not given in full)
- ED90 (rice): 100 µg/mL (≈ 273 µM)
- Ki (Scytalone dehydratase [1]): 2.2 nM
- Adjusted Ki (Scytalone dehydratase [2]): 2.2 nM

SMILES: C[C@H](COc1ccccc1)NC(=O)c1cc(F)ccc1O
- Ki (Scytalone dehydratase [1]): 0.44 nM

SMILES: C[C@H](COc1cccc(F)c1F)NC(=O)[C@@H](C#N)C(C)(C)C
- ED90 (rice): 25 µg/mL (≈ 80.6 µM)
- Ki (Scytalone dehydratase [1]): 0.95 nM
- Adjusted Ki (Scytalone dehydratase [2]): 0.95 nM

SMILES: C[C@@H](COc1cc(F)ccc1F)NC(=O)[C@H](C#N)C(C)(C)C
- ED90 (rice): > 200 µg/mL
- Ki (Scytalone dehydratase [1]): 97 nM
- Adjusted Ki (Scytalone dehydratase [2]): 97 nM

SMILES: C[C@H](COc1ccccc1)NC(=O)[C@@H](C#N)C(C)(C)C (stereo in doubt; 6f) [listing 1 of 2 here]
- ED90 (rice): 25 µg/mL (≈ 91.1 µM)

SMILES: CC[C@]1(C(=O)N[C@@H](C)COc2cc(F)ccc2F)C(C)C1(Cl)Cl (stereo not given in full)
- ED90 (rice): 100 µg/mL (≈ 273 µM)
- Ki (Scytalone dehydratase [1]): 33 nM
- Adjusted Ki (Scytalone dehydratase [2]): 16 nM

SMILES: C[C@@H](COc1cc(F)ccc1F)NC(=O)[C@@H](C#N)C(C)(C)C
- ED90 (rice): > 200 µg/mL
- Ki (Scytalone dehydratase [1]): 7.7 nM
- Adjusted Ki (Scytalone dehydratase [2]): 7.7 nM

SMILES: C[C@H](COc1ccccc1)NC(=O)[C@@H](C#N)C(C)(C)C (stereo in doubt; 6f) [listing 2 of 2 here]
- Ki (Scytalone dehydratase [1]): 0.58 nM
- Adjusted Ki (Scytalone dehydratase [2]): 0.58 nM

SMILES: CC[C@]1(C(=O)NCCCc2ccccc2)C(C)C1(Cl)Cl (stereo not given in full)
- ED90 (rice): 30 µg/mL (≈ 95.5 µM)
- Ki (Scytalone dehydratase [1]): 1.9 nM
- Adjusted Ki (Scytalone dehydratase [2]): 0.96 nM

SMILES: C[C@H](COc1cc(F)ccc1F)NC(=O)C(C#N)C(C)(C)C (stereo not given in full)
- ED90 (rice): 6.2 µg/mL (≈ 20 µM)
- Ki (Scytalone dehydratase [1]): 0.042 nM
- Adjusted Ki (Scytalone dehydratase [2]): 0.021 nM

SMILES: CC(C)(C)C(C#N)C(=O)NCCCc1ccccc1 (stereo not given)
- ED90 (rice): 200 µg/mL (≈ 774 µM)
- Ki (Scytalone dehydratase [1]): 13.6 nM
- Adjusted Ki (Scytalone dehydratase [2]): 6.8 nM

SMILES: CC[C@]1(C(=O)NCCOc2ccccc2)C(C)C1(Cl)Cl (stereo not given in full)
- ED90 (rice): 200 µg/mL (≈ 632 µM)
- Ki (Scytalone dehydratase [1]): 7.5 nM
- Adjusted Ki (Scytalone dehydratase [2]): 3.7 nM

SMILES: CC(CCc1ccccc1)NC(=O)C(C#N)C(C)(C)C (stereo not given)
- ED90 (rice): > 200 µg/mL
- Ki (Scytalone dehydratase [1]): 7.2 nM
- Adjusted Ki (Scytalone dehydratase [2]): 1.8 nM

SMILES: CC(COc1cccc(F)c1)NC(=O)[C@@H](C#N)C(C)(C)C (stereo not given in full)
- ED90 (rice): 25 µg/mL (≈ 85.5 µM)
- Ki (Scytalone dehydratase [1]): 0.46 nM
- Adjusted Ki (Scytalone dehydratase [2]): 0.23 nM

SMILES: C[C@H](COc1cccc(F)c1)NC(=O)[C@@H](C#N)C(C)(C)C
- ED90 (rice): 25 µg/mL (≈ 85.5 µM)
- Ki (Scytalone dehydratase [1]): 0.24 nM
- Adjusted Ki (Scytalone dehydratase [2]): 0.24 nM

SMILES: C[C@H](COc1ccccc1)NC(=O)[C@H](C#N)C(C)(C)C
- ED90 (rice): > 200 µg/mL
- Ki (Scytalone dehydratase [1]): 66 nM
- Adjusted Ki (Scytalone dehydratase [2]): 33 nM
